How the values were obtained:
Assay in all cases: biochemical
Set-up in all cases: DiscoverX KINOMEscan scanMAX competition binding panel, single concentration, percent of control; remaining binding: dose or concentration left out as unconfirmed
Settings in all cases: KINOMEscan binding, percent of control; read-out: Table S4_SCANMAX REPORT - related to Fig. 1 / Percent Control
[1] = molecular target: T1, ABL1(F317L)-phosphorylated (Homo sapiens, UniProt P00519, F317L)
T1 construct: phosphorylated

BMPR2 = BMPR2 (Homo sapiens, UniProt Q13873)
BMX = BMX (Homo sapiens, UniProt P51813)
BRSK2 = BRSK2 (Homo sapiens, UniProt Q8IWQ3)
CAMKK2 = CAMKK2 (Homo sapiens, UniProt Q96RR4)
DDR2 = DDR2 (Homo sapiens, UniProt Q16832)
EPHB1 = EPHB1 (Homo sapiens, UniProt P54762)
ERK4 = molecular target: T2, ERK4 (Homo sapiens, UniProt P31152)
T2 construct: gene MAPK4

FGFR3(G697C) = FGFR3(G697C) (Homo sapiens, UniProt P22607, G697C)
[2] = molecular target: T3, JAK1(JH1domain-catalytic) (Homo sapiens, UniProt P23458)
T3 construct: JH1domain-catalytic

KIT(V559D) = KIT(V559D) (Homo sapiens, UniProt P10721, V559D)
MLCK = molecular target: T4, MLCK (Homo sapiens, UniProt Q32MK0)
T4 construct: gene MYLK3

PLK1 = PLK1 (Homo sapiens, UniProt P53350)
[3] = molecular target: T5, RSK2(Kin.Dom.1-N-terminal) (Homo sapiens, UniProt P51812)
T5 construct: gene RPS6KA3; Kin.Dom.1-N-terminal

SRPK3 = SRPK3 (Homo sapiens, UniProt Q9UPE1)
TRKC = molecular target: T6, TRKC (Homo sapiens, UniProt Q16288)
T6 construct: gene NTRK3

[4] = molecular target: T7, TYK2(JH1domain-catalytic) (Homo sapiens, UniProt P29597)
T7 construct: JH1domain-catalytic

VPS34 = molecular target: T8, VPS34 (Homo sapiens, UniProt Q8NEB9)
T8 construct: gene PIK3C3
T8 sequence (Q8NEB9 whole entry): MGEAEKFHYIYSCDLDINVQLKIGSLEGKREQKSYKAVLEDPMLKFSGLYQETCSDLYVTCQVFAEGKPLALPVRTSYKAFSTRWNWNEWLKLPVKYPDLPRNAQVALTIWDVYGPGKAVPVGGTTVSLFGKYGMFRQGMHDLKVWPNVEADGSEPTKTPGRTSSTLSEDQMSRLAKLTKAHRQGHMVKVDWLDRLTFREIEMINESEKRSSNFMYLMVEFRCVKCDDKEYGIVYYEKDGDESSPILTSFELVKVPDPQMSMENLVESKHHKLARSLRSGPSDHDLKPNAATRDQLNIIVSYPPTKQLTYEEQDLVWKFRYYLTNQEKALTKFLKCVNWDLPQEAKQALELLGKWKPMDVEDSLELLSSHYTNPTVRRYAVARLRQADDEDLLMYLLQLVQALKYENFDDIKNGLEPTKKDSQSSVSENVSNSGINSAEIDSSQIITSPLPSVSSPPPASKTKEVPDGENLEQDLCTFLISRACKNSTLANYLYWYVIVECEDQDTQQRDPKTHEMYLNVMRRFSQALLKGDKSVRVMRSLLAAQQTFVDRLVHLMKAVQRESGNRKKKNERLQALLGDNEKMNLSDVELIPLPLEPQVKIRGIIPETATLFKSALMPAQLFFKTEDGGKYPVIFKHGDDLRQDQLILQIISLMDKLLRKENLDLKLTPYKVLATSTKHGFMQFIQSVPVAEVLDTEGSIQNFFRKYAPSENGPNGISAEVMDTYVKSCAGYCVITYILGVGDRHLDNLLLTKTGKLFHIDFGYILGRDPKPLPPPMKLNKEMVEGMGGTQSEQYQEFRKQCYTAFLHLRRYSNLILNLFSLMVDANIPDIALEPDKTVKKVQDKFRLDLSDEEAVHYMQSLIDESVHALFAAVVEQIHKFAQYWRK

T4 sequence (Q32MK0 whole entry): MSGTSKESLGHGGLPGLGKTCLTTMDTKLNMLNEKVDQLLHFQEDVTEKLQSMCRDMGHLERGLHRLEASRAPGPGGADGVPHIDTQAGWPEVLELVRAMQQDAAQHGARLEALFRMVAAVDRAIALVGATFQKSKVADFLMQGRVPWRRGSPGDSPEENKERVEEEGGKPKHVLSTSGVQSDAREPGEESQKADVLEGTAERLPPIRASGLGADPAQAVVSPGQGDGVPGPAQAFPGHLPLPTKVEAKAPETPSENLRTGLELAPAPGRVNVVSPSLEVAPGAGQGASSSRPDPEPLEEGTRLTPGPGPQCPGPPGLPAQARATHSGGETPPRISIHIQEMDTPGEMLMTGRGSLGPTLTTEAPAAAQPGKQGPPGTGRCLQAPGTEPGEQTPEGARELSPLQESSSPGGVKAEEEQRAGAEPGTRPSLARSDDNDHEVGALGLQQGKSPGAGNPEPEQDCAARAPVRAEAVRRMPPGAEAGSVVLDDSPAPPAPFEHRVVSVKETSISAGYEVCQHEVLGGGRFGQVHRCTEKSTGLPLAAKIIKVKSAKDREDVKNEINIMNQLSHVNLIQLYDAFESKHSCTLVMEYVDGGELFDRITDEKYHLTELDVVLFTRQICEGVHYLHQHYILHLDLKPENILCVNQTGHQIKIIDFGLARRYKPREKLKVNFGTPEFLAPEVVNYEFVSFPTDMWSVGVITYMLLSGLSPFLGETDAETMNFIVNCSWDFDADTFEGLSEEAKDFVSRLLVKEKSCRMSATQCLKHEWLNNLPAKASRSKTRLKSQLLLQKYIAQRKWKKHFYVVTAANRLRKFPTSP
Sequence of DDR2 (Q16832 whole entry): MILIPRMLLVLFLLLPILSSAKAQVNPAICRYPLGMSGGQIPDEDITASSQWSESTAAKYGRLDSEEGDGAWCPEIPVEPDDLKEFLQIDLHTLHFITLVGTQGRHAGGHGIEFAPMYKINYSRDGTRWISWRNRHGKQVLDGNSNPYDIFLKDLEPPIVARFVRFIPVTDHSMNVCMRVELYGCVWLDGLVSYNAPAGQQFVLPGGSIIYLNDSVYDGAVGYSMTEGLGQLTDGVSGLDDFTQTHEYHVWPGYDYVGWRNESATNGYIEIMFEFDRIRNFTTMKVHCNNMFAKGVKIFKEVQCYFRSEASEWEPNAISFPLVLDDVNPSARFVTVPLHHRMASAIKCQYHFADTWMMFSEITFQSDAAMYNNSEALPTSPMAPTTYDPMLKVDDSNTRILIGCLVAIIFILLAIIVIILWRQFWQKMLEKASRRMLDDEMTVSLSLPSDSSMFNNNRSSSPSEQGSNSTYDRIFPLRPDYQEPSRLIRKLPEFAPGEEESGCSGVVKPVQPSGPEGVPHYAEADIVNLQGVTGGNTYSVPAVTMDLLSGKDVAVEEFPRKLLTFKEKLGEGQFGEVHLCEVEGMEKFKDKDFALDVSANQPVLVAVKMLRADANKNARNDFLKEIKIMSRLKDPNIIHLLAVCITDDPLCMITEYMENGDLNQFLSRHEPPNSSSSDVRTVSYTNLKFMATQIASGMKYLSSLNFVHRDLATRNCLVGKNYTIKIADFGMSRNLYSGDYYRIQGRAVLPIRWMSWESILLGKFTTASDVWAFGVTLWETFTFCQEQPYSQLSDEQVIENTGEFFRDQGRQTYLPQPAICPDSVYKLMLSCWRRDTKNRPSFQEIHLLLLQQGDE
Sequence of EPHB1 (P54762 whole entry): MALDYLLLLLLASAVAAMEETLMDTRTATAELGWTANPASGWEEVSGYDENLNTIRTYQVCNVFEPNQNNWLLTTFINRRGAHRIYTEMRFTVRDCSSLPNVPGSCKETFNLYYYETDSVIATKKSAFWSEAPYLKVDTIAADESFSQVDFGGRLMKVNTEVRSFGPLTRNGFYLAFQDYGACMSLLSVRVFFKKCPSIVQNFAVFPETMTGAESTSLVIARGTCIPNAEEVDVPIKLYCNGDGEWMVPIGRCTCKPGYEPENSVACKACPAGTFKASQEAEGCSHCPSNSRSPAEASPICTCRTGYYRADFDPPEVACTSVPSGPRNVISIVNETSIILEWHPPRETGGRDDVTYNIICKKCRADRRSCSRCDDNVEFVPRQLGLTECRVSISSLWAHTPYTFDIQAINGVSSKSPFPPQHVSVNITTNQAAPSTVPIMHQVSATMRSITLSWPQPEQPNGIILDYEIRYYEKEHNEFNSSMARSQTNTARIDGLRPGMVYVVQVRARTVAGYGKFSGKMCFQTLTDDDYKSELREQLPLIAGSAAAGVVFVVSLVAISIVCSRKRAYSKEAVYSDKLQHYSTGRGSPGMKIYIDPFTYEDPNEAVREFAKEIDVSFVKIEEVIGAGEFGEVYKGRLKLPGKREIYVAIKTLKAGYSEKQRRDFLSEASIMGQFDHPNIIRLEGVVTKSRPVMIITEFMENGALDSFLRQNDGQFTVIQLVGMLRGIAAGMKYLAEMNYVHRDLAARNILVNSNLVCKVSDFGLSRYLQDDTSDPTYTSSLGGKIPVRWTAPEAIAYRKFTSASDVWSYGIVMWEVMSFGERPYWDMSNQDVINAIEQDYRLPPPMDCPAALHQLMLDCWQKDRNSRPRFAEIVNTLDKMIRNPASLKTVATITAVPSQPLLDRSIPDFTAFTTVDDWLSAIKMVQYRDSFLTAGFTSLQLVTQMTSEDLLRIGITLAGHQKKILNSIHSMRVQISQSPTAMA
Sequence of BMX (P51813 whole entry): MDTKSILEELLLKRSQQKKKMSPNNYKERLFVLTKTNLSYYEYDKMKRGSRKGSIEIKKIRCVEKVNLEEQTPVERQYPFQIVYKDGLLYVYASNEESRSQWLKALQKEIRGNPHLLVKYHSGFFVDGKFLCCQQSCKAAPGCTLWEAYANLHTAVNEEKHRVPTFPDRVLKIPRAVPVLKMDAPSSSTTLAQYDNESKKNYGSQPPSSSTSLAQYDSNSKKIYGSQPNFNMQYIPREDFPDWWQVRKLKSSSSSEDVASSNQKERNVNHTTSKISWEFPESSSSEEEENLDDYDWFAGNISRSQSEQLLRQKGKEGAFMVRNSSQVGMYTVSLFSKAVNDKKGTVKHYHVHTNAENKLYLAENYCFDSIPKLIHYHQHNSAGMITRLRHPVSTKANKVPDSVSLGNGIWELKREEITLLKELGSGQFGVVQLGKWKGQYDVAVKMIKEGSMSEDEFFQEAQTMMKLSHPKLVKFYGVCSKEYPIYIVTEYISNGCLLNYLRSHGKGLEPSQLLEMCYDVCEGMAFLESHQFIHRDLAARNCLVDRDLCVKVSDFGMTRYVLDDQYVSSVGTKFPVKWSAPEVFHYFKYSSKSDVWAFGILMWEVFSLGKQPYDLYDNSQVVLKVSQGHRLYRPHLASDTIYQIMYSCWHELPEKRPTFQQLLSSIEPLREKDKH
Sequence of BRSK2 (Q8IWQ3 whole entry): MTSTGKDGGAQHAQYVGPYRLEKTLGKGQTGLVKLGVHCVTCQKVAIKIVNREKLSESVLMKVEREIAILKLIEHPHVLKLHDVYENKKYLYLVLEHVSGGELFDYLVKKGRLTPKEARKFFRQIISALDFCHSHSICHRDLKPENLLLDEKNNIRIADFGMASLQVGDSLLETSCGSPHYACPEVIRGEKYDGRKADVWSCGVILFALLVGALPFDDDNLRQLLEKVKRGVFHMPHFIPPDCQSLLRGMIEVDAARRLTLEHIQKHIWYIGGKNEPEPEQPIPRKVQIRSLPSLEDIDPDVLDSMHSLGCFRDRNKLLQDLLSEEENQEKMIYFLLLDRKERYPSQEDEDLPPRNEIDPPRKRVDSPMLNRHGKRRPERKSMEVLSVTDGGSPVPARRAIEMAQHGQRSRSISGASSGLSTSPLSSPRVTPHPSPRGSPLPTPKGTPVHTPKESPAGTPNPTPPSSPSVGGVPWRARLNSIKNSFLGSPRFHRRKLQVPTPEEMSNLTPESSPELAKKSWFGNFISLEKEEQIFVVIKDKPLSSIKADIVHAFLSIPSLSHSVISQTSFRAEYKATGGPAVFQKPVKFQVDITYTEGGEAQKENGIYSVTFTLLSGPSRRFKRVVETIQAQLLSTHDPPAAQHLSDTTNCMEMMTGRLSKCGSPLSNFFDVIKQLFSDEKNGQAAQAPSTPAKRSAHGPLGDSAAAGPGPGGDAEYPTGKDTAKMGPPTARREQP

`c1ccc2c(c1)Sc1ccccc1N2CCN1CCOCC1` [J54] showed a remaining binding [1] of 99%, a remaining binding (BMPR2) of 100% and a remaining binding (BMX) of 100%. For the same compound, the remaining binding (BRSK2) was 100%, the remaining binding (CAMKK2) was 100% and the remaining binding (DDR2) was 88%. The remaining binding (EPHB1) was 100%, the remaining binding (ERK4) was 100% and the remaining binding (FGFR3(G697C)) was 100%. It also gave a remaining binding [2] of 100%, a remaining binding (KIT(V559D)) of 100% and a remaining binding (MLCK) of 79%. The remaining binding (PLK1) was 100%, the remaining binding [3] was 97% and the remaining binding (SRPK3) was 100%. For the same compound, the remaining binding (TRKC) was 81%, the remaining binding [4] was 100% and the remaining binding (VPS34) was 86%.
